“Also recorded” adds a separate entry of the source.
How the values were obtained:
[1] = tested on: 6 Hz-44 mA psychomotor seizure mice; test: Pharmaco-resistant 6 Hz-44 mA psychomotor seizures in mice; assay type: in vivo, mouse; conditions: Mus musculus; oral, 1 hour before electrostimulation, ddY mice; read-out: ED50 (95% CI), 6 Hz-44 mA psychomotor seizures
Procedure: Psychomotor seizures were stimulated by applying currents (44 mA, 6 Hz, 0.2 millisecond rectangular pulse width, 3‐second duration each) via a corneal electrode (SEN‐7203; Nihon Kohden). E2730 (5–50 mg/kg), levetiracetam (Tokyo Chemical Industry; 20–200 mg/kg), or vehicle was orally administered to ddY mice (male, 5 weeks old; Japan SLC Inc.) 1 hour before electrostimulation. […] Behavioral seizures observed in mice were classified into the following four types: stun, forelimb clonus, twitching of the vibrissae, and Straub‐tail.

hBGT-1 = biological target: T1, hBGT-1 (Homo sapiens, UniProt P48065); test: [3H]GABA uptake in hBGT-1 stably expressing HEK293 cells; assay type: cell-based; conditions: hBGT-1 HEK293 cells, 50 μM [3H]GABA
T1 construct: expressed in transfected cells; host or cells: HEK293
T1 sequence (P48065 1-614): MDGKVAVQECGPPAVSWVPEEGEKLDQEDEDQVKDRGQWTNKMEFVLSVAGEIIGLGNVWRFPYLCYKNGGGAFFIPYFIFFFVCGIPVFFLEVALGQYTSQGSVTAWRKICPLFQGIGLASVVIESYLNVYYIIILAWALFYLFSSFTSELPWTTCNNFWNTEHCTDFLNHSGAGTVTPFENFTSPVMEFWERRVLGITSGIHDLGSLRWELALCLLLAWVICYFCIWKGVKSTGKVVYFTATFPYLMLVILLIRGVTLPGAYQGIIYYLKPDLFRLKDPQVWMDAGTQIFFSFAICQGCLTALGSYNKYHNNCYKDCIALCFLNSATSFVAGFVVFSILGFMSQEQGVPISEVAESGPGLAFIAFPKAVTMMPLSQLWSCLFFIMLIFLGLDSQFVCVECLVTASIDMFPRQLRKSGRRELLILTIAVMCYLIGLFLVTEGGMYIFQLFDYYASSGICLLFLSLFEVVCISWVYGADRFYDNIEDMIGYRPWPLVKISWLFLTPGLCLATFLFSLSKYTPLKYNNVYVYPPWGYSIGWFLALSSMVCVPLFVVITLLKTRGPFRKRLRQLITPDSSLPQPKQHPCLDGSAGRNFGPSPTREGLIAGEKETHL
Procedure: HEK293 cells stably expressing human GAT1 (hGAT1), GAT2 (hGAT2), GAT3 (hGAT3), or betaine/GABA transporter 1 (hBGT‐1) were plated onto 96‐well microtiter plates at a density of 4.0 × 10^4 cells/well in Dulbecco's Modified Eagle's Medium (DMEM, containing 10% fetal bovine serum, 100 units/mL penicillin, 100 μg/mL streptomycin, 1% non‐essential amino acid solution, and 25 mM HEPES) and incubated overnight at 37°C in a 5% CO2 atmosphere. After washing the cells with Hanks’ balanced salt solution (HBSS, containing 140 mg/L CaCl2, 100 mg/L MgCl2, 20 mM HEPES, and 10 mM NaOH), E2730 (0.0128–1000 μM) was added to the plate. Following the addition of 50 μM [^3H]GABA, cells were incubated for 5 minutes at 37°C in a 5% CO2 atmosphere and then washed with cold HBSS. Washed cells were incubated in a scintillator for 1 hour at room temperature, followed by radioactivity measurements using a liquid scintillation counter.

[2] = biological target: T2, hGABAAR (containing α1, β3, and γ2 subunits) (Homo sapiens, UniProt P14867+P18507+P28472); test: GABA-induced current in hGABAAR-expressing HEK-293 cells, whole-cell patch-clamp; assay type: cell-based; conditions: up to 100 μM
T2 construct: expressed in transfected cells; host or cells: HEK-293
Procedure: Data represent the mean ± SEM of 3 independent experiments. Control response is GABA (13 μM)-induced current amplitude. […] Cells in voltage clamp were maintained at -80 mV throughout the experiments following the voltage protocol.

[3] = tested on: extracellular GABA concentration in mouse hippocampus; test: Microdialysis: extracellular GABA concentration in mouse hippocampus; assay type: in vivo
Procedure: A guide cannula was implanted in the left hippocampus (2.7 mm posterior, 3.3 mm left, and 1.8 mm below from the bregma) of ddY mice (male, 5 weeks old). After 5–7 days of recovery, a microdialysis probe (Eicom) was inserted into the left hippocampus through the guide cannula. The tip of the microdialysis probe reached 4.8 mm below the bregma. The next day, the probe was connected to a perfusion tube and perfused with Ringer solution (containing 147.0 mM NaCl, 4.7 mM KCl, 0.6 mM MgSO4, 2.5 mM CaCl2, 5.0 mM HEPES, pH 7.4) at a flow rate of 1.5 μL/min. After ≥160 minutes of perfusion, collection of the perfusate (30 μL/20 min/fraction) was initiated, and 12 fractions per animal were collected for 240 minutes. E2730 (10–100 mg/kg), tiagabine (3–30 mg/kg), or vehicle was orally administered 72 minutes after initiating sample collection. Tiagabine was used as a reference ASM of a non‐competitive GAT1 inhibitor. Perfusate was switched from Ringer solution to high‐potassium Ringer solution (51.7 mM NaCl, 100.0 mM KCl, 0.6 mM MgSO4, 2.5 mM CaCl2, 5.0 mM HEPES, pH 7.4) after 127 minutes following the collection. GABA concentration in each sample was measured by a high‐performance liquid chromatography with tandem mass spectrometry method.

[4] = mouse hippocampus, oral, E2730 10-100 mg/kg, tiagabine 3-30 mg/kg

T2 sequence (P14867 28-456): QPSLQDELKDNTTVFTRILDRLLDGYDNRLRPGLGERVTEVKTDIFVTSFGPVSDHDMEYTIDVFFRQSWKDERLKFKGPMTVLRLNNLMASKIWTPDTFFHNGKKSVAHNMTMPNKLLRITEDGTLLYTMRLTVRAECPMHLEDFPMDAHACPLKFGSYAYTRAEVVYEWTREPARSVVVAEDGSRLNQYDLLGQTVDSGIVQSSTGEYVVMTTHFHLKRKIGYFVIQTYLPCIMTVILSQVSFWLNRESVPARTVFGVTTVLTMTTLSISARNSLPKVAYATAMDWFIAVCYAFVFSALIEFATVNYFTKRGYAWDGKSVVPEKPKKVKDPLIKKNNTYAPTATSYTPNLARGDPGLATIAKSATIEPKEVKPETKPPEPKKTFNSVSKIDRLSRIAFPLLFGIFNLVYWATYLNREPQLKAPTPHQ
T2 sequence (P28472 26-473): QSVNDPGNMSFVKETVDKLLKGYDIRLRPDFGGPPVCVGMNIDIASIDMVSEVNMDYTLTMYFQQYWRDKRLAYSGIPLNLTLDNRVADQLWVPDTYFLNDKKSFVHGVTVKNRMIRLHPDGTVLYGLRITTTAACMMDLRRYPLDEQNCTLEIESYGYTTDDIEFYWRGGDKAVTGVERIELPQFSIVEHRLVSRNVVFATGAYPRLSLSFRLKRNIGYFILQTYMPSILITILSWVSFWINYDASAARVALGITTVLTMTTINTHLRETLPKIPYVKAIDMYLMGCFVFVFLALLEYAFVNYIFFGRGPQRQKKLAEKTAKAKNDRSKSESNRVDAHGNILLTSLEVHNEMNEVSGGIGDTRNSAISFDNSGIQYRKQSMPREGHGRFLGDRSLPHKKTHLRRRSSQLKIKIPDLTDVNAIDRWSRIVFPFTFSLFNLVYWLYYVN
T2 sequence (P18507 40-475): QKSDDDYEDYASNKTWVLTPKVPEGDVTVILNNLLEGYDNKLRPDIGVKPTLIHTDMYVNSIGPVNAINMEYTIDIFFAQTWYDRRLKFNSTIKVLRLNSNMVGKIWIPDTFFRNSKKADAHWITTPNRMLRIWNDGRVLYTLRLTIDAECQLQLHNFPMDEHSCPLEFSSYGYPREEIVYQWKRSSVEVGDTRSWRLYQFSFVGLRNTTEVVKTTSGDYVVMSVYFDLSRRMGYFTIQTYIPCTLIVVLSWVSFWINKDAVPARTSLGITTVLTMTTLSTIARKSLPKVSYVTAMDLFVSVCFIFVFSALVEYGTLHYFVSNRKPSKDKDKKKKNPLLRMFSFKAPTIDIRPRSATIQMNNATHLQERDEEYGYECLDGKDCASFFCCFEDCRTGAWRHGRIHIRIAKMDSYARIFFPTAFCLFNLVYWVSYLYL

NS(=O)(=O)N[C@H]1c2c(F)cc(F)cc2CC1(F)F [E2730]
ED50 [1]: 17 mg/kg
IC50 (hBGT-1): 890 µM
effect on GABA-induced current [2]: did not directly affect
effect on high-potassium-induced extracellular GABA concentration ([3]; E2730 10 mg/kg): not statistically significant
effect on high-potassium-induced extracellular GABA concentration ([3]; E2730 30 and 100 mg/kg): significantly increased
effect on basal extracellular GABA concentration [3, 4]: no significant difference; also recorded: did not increase; also recorded: did not affect
effect on high-potassium-induced extracellular GABA concentration [3, 4]: significant increase

Source: publication PMC10472371, “Discovery of E2730, a novel selective uncompetitive GAT1 inhibitor, as a candidate for anti‐seizure medication” (Epilepsia Open, 2023)
